Results on 17 compounds are retold here after patent publication US9029343B2, “Modulators of histone methyltransferase, and methods of use thereof” (Epizyme, Inc., priority 2010, dated 2015).

EZH2, sequence (Q15910 whole entry, species assumed): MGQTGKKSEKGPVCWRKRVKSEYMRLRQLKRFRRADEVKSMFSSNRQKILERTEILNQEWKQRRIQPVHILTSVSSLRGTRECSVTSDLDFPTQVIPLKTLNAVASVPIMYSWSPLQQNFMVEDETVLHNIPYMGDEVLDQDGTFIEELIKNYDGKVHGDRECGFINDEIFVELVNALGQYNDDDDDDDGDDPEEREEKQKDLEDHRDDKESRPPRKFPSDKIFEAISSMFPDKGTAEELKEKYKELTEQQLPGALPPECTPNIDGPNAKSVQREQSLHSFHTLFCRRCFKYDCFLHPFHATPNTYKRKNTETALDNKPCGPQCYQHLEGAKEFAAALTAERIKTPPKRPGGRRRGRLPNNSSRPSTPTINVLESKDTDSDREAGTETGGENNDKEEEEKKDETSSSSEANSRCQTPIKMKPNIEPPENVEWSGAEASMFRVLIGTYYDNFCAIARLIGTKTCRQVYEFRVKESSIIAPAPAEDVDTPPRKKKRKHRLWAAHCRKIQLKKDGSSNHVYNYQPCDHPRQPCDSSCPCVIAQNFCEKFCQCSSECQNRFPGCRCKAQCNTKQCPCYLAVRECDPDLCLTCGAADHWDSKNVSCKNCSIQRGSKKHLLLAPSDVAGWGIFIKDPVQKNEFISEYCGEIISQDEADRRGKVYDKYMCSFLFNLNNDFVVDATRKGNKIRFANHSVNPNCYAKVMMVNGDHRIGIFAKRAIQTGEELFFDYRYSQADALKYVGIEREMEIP
EZH2, sequence (O75530 whole entry partner, species assumed): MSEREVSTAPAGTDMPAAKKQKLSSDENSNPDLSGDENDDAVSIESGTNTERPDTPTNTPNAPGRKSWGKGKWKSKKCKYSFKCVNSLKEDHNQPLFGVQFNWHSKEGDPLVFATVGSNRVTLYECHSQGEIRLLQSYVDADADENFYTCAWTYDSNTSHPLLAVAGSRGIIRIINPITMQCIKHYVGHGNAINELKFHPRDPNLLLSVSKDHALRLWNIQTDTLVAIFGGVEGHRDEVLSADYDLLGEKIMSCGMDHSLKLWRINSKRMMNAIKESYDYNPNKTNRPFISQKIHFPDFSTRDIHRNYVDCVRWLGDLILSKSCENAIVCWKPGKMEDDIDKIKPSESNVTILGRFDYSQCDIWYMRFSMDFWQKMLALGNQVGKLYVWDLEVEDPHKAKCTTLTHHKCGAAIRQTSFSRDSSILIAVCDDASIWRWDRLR
EZH2, sequence (Q15022 whole entry partner, species assumed): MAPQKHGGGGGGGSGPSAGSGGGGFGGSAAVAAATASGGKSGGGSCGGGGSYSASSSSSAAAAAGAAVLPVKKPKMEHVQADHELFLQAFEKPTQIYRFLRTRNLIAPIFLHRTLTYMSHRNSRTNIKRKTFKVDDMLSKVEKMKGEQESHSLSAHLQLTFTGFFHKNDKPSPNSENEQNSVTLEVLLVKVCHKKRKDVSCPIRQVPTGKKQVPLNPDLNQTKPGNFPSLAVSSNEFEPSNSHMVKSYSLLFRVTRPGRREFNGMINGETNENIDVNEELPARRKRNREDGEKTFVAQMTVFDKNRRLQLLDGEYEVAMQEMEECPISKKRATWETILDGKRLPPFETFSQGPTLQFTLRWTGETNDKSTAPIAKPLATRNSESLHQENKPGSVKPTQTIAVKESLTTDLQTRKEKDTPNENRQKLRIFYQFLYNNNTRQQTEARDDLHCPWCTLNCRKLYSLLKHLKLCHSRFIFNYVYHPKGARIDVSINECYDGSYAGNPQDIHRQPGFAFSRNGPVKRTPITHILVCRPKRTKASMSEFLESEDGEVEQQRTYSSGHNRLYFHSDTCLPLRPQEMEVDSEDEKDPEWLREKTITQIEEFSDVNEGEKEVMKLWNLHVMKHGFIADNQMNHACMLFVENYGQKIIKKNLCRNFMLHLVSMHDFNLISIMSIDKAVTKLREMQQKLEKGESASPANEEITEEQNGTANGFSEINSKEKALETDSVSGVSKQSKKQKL

One assay has as its target EZH2 (Homo sapiens, UniProt Q15910). Description: EZH2 IC50 (FIGS. 7A and 7B). In kind it is biochemical.
Conditions: not given
Take `CN(CCCNC(=O)Nc1ccc(Oc2ccccc2N)cc1)C[C@H]1O[C@@H](n2cnc3c(N)ncnc32)[C@H](O)[C@@H]1O` [Compound 183]: the IC50 was above 50 µM.
Still for that read-out and setting: the value for `CN(CCCNC(=O)Nc1ccc(C2CCCCC2)cc1)C[C@H]1O[C@@H](n2cnc3c(N)ncnc32)[C@H](O)[C@@H]1O` [Compound 185] was above 50 µM; that for `CN(CCCOC(=O)Nc1ccc(C(C)(C)C)cc1)C[C@H]1O[C@@H](n2cnc3c(N)ncnc32)[C@H](O)[C@@H]1O` [Compound 152] was above 50 µM.
The same measure, in the same setting: the value for `CN(CCCNC(=O)Nc1ccc(-c2cscn2)cc1)C[C@H]1O[C@@H](n2cnc3c(N)ncnc32)[C@H](O)[C@@H]1O` [Compound 190] was above 50 µM.
On the same count and under the same terms, the value for `CN(CCCCC(=O)Nc1ccc(C(C)(C)C)cc1)C[C@H]1O[C@@H](n2cnc3c(N)ncnc32)[C@H](O)[C@@H]1O` [Compound 179] was above 50 µM; that for `CC(C)CN(CCCNC(=O)Nc1ccc(C(C)(C)C)cc1)C[C@H]1O[C@@H](n2cnc3c(N)ncnc32)[C@H](O)[C@@H]1O` [Compound 209] was above 50 µM.
In turn, `CN(CCCCNC(=O)Nc1ccc(C(C)(C)C)cc1)C[C@H]1O[C@@H](n2cnc3c(N)ncnc32)[C@H](O)[C@@H]1O` [Compound 159] displayed a half-maximal inhibitory concentration (IC50) above 50 µM.
The same measure, in the same setting: the value for `CC(C)(C)c1ccc(NC(=O)NCCCN(C=O)C[C@H]2O[C@@H](n3cnc4c(N)ncnc43)[C@H](O)[C@@H]2O)cc1` [Compound 206] was above 50 µM; that for `CN(C[C@H]1O[C@@H](n2cnc3c(N)ncnc32)[C@H](O)[C@@H]1O)CC(C)(C)CNC(=O)Nc1ccc(C(C)(C)C)cc1` [Compound 163] was above 50 µM; that for `CC(=O)N(CCCNC(=O)Nc1ccc(C(C)(C)C)cc1)C[C@H]1O[C@@H](n2cnc3c(N)ncnc32)[C@H](O)[C@@H]1O` [Compound 195] was above 50 µM.
Still for that read-out and setting: the value for `CN(C[C@H]1O[C@@H](n2cnc3c(N)ncnc32)[C@H](O)[C@@H]1O)CC1(CNC(=O)Nc2ccc(C(C)(C)C)cc2)CC1` [Compound 167] was above 50 µM; that for `CN(CCCN(C)C(=O)Nc1ccc(C(C)(C)C)cc1)C[C@H]1O[C@@H](n2cnc3c(N)ncnc32)[C@H](O)[C@@H]1O` [Compound 173] was above 50 µM; that for `CCN(CCCNC(=O)Nc1ccc(C(C)(C)C)cc1)C[C@H]1O[C@@H](n2cnc3c(N)ncnc32)[C@H](O)[C@@H]1O` [Compound 169] was above 50 µM.
Still for that read-out and setting: the value for `Cc1cccc(-c2ccc(NC(=O)NCCCN(C)C[C@H]3O[C@@H](n4cnc5c(N)ncnc54)[C@H](O)[C@@H]3O)cc2)c1` [Compound 199] was above 50 µM.
As to `CN(CCCCCNC(=O)Nc1ccc(C(C)(C)C)cc1)C[C@H]1O[C@@H](n2cnc3c(N)ncnc32)[C@H](O)[C@@H]1O` [Compound 213], the IC50 is above 50 µM.
`CC(CNC(=O)Nc1ccc(C(C)(C)C)cc1)CN(C)C[C@H]1O[C@@H](n2cnc3c(N)ncnc32)[C@H](O)[C@@H]1O` (some centres unmarked) [Compound 223] registered a 50% inhibitory concentration (IC50) above 50 µM.

For another assay, the system named is H3K79me2 in THP-1 cells. Description: Methylation analysis: cellular H3K79 dimethylation in THP-1 cells. The class given is cell-based, Human. The settings on record: 50 μM, seven days, western blot. As for the experimental part: THP-1 cells were incubated in the presence 50 μM of the indicated compounds for seven days. […] Following treatment, cells were harvested, and histones were extracted, fractionated by SDS-PAGE on a 4-20% gel, transferred to nitrocellulose membranes, and probed with antibodies to histone H3 and histone H3 dimethylated at lysine 79 (H3K79me2). Histones extracted from THP-1 cells expressing control (shNTC) and DOT1L targeting (shDOT1L) shRNAs were included as controls.
Cells were seeded at 5×10^5 cells/mL in a 12 well plate at a final volume of 2 mLs. Cells were dosed with compounds to the appropriate concentration from a 50 mM DMSO stock solution. Compound and media were refreshed every two days over the course of seven day incubation by counting cells using trypan blue exclusion (Vicell), pelleting at 200 g for 5 minutes and resuspending in fresh media containing compound at a final cell concentration of 5×10^5 cells/mL. […] Purified histones were quantitated using the BCA protein assay (Pierce) with a BSA standard curve. 400 ng of isolated histones were fractionated by SDS-PAGE on a 4-20% gel and transferred to nitrocellulose membranes. Membranes were incubated with various primary and secondary antibodies and imaged on the Licor imaging system (Odyssey). The H3K79-Me2 rabbit polyclonal was purchased from Abcam. Other rabbit polyclonal antibodies including H3K4-Me3, H3K9-Me3, H3K27-Me2, and H3K27-Me3 were purchased from Cell Signaling Technologies (CST). A mouse monoclonal total H3 antibody was used as a loading control (CST). Fluorescently labeled secondary antibodies were purchased from Odyssey.
Take `CN(CCCNC(=O)Nc1ccc(C(C)(C)C)cc1)C[C@H]1O[C@@H](n2cnc3c(N)ncnc32)[C@H](O)[C@@H]1O` [Compound 118, 1-(3-((((2R,3S,4R,5R)-5-(6-amino-9H-purin-9-yl)-3,4-dihydroxytetrahydrofuran-2-yl)methyl)(methyl)amino)propyl)-3-(4-(tert-butyl)phenyl)urea]: the “cellular histone H3 lysine 79 dimethylation (H3K79me2) level” value was “dramatically reduced”.

The assay is the same for the next values; noted with them: seven days, lowest concentration tested.
Take `CN(CCCNC(=O)Nc1ccc(C(C)(C)C)cc1)C[C@H]1O[C@@H](n2cnc3c(N)ncnc32)[C@H](O)[C@@H]1O` [Compound 118, 1-(3-((((2R,3S,4R,5R)-5-(6-amino-9H-purin-9-yl)-3,4-dihydroxytetrahydrofuran-2-yl)methyl)(methyl)amino)propyl)-3-(4-(tert-butyl)phenyl)urea]: the “concentration at which reduction in H3K79me2 was still observed” value was at most 0.4 µM.

The same assay, now with this note: several concentrations.
As to `CN(CCCNC(=O)Nc1ccc(C(C)(C)C)cc1)C[C@H]1O[C@@H](n2cnc3c(N)ncnc32)[C@H](O)[C@@H]1O` [Compound 118, 1-(3-((((2R,3S,4R,5R)-5-(6-amino-9H-purin-9-yl)-3,4-dihydroxytetrahydrofuran-2-yl)methyl)(methyl)amino)propyl)-3-(4-(tert-butyl)phenyl)urea], the “concentration dependence of reduction in H3K79me2 levels” value was “dose dependent reduction”.

Another assay relates to H3K4, H3K9 and H3K27 methylation in THP-1 cells. Description: Methylation analysis: other histone methylation sites in THP-1 cells. The class given is cell-based, Human. The settings on record: antibodies to H3K4me3, H3K9me3, H3K27me2, H3K27me3. As for the experimental part: Cells were seeded at 5×10^5 cells/mL in a 12 well plate at a final volume of 2 mLs. Cells were dosed with compounds to the appropriate concentration from a 50 mM DMSO stock solution. Compound and media were refreshed every two days over the course of seven day incubation by counting cells using trypan blue exclusion (Vicell), pelleting at 200 g for 5 minutes and resuspending in fresh media containing compound at a final cell concentration of 5×10^5 cells/mL. Following compound incubation, histones were extracted from 1×10^6 cells using a commercial histone extraction kit (Active Motif). Purified histones were quantitated using the BCA protein assay (Pierce) with a BSA standard curve. 400 ng of isolated histones were fractionated by SDS-PAGE on a 4-20% gel and transferred to nitrocellulose membranes. Membranes were incubated with various primary and secondary antibodies and imaged on the Licor imaging system (Odyssey). The H3K79-Me2 rabbit polyclonal was purchased from Abcam. Other rabbit polyclonal antibodies including H3K4-Me3, H3K9-Me3, H3K27-Me2, and H3K27-Me3 were purchased from Cell Signaling Technologies (CST). A mouse monoclonal total H3 antibody was used as a loading control (CST). Fluorescently labeled secondary antibodies were purchased from Odyssey.
Regarding `CN(CCCNC(=O)Nc1ccc(C(C)(C)C)cc1)C[C@H]1O[C@@H](n2cnc3c(N)ncnc32)[C@H](O)[C@@H]1O` [Compound 118, 1-(3-((((2R,3S,4R,5R)-5-(6-amino-9H-purin-9-yl)-3,4-dihydroxytetrahydrofuran-2-yl)methyl)(methyl)amino)propyl)-3-(4-(tert-butyl)phenyl)urea], the “effect on sites targeted by other histone methyltransferases (H3K4, H3K9 and H3K27)” value is “did not affect”.

As usually defined, the IC50 is the concentration that inhibits the measured activity by half. A high value points to a need for much substance.
